# Target: T1, N-formyl peptide receptor 2 (Homo sapiens, UniProt P25090)
# T1 sequence (P25090 whole entry): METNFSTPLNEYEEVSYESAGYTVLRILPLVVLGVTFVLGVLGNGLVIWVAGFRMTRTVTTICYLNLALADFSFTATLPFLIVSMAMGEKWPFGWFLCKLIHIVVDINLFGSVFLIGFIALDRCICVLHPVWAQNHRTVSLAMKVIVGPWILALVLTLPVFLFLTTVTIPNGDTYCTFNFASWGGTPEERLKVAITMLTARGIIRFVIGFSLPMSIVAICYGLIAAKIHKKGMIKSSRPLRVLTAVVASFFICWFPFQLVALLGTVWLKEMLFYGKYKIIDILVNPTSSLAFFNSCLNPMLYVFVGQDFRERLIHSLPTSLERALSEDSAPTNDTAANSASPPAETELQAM
# Assay: FPR2 and FPR1 Cyclic Adenosine Monophosphate (cAMP) Assays: A mixture of forskolin (5 μM final for FPR2 or 10 μM final for FPR1) and IBMX (200 μM final) were added to 384-well Proxiplates (Perkin-Elmer) pre-dotted with test compounds in DMSO (1% final) at final concentrations in the range of 1.7 nM to 100 μM. Chinese Hamster Ovary cells (CHO) overexpressing human FPR1 or human FPR2 receptors were cultured in F-12 (Ham's) medium supplemented with 10% qualified FBS, 250 μg/ml zeocin and 300 μg/ml hygromycin (Life Technologies). Reactions were initiated by adding 2,000 human FPR2 cells per well or 4,000 human FPR1 cells per well in Dulbecco's PBS (with calcium and magnesium) (Life Technologies) supplemented with 0.1% BSA (Perkin-Elmer). The reaction mixtures were incubated for 30 min at room temperature. The level of intracellular cAMP was determined using the HTRF HiRange cAMP assay reagent kit (Cisbio) according to manufacturer's instruction. Solutions of cryptate conjugated anti-cAMP and d2 flurorophore-labelled cAMP were made in a supplied lysis buffer separately. Upon completion of the reaction, the cells were lysed with equal volume of the d2-cAMP solution and anti-cAMP solution. After a 1-h room temperature incubation, time-resolved fluorescence intensity was measured using the Envision (Perkin-Elmer) at 400 nm excitation and dual emission at 590 nm and 665 nm. […]
# Assay type: cell-based
row,EC50 [nM],SMILES
1,< 10,O=C(Nc1ccc(C(F)(F)F)cc1)N[C@@H]1CCCN(c2ccc(C3CCOCC3)cc2)C1=O
2,< 10,O=C(Nc1cnc(Cl)cn1)N[C@@H]1CCCN(c2ccc(C3(CN4CCOCC4)CC3)cc2)C1=O

# From ChEMBL document CHEMBL5728714, “Aryl heterocyclic piperidinone formyl peptide 2 receptor and formyl peptide 1 receptor agonists” (2021)
